Experimental data published in patent EP4707284A1, “HETEROCYCLIC COMPOUND AND USE THEREOF” (Otsuka Pharmaceutical Co., Ltd., priority 2023, dated 2024).

Assay type: physicochemical
Conditions: Tris-hydrochloric acid buffer (pH 7.5) 50 mmol/L, magnesium chloride 5 mmol/L, evaluation compound 1 µmol/L, 37°C, 60 minutes, average of duplicate
Method: The conversion from the evaluation compounds to brexpiprazole in a buffer (i.e., the stability of the evaluation compounds) was evaluated.
The Example 1 compound was dissolved in acetonitrile/water (1:1, v/v) to 10 mmol/L and further diluted with acetonitrile/water (1:1, v/v) to 100 µmol/L for use.
The other Example compounds and the Reference Example 5 compound to Reference Example 7 compound were each dissolved in DMSO to 10 mmol/L and further diluted with acetonitrile to 100 µmol/L for use, except for the following compounds.
The compounds of Examples 52, 95, 96, 117, and 130 (EX 52, EX 95, EX 96, EX 117, and EX 130) were dissolved in acetonitrile/water (8:2, v/v) to 10 mmol/L and further diluted with acetonitrile to 100 µmol/L for use.
The compound of Example 97 (EX 97) was dissolved in acetonitrile/water (8:2, v/v) to 10 mmol/L and further diluted with acetonitrile/water (8:2, v/v) to 100 µmol/L for use.
The compounds of Examples 15 and 116 (EX 15 and EX 116) were dissolved in DMSO to 1 mmol/L and further diluted with acetonitrile to 100 µmol/L for use.
These evaluation compound solutions were prepared at the time of use.
The reaction was conducted by preparing each reaction solution such that the final concentration of each component was as follows. The test was conducted in duplicate.
For the compounds of Examples 1 to 8, 10 to 19, 26 to 27, 37, 50, 87 to 89, 91, 116, 121, 123, 150, and 151 (EX 1 to EX 8, EX 10 to EX 19, EX 26 to EX 27, EX 37, EX 50, EX 87 to EX 89, EX 91, EX 116, EX 121, EX 123, EX 150, and EX 151), and the compounds of Reference Examples 5 to 7 (REX 5 to REX 7), the reaction solution without the evaluation compound (198 µl) was pre-incubated at 37°C for 3 minutes, and then each of the evaluation compound solutions (2 µl) was added and stirred; thereafter, the reaction was started at 37°C. At 0 minutes or 60 minutes after the start of the reaction, the reaction was stopped by adding and stirring a reaction stop solution (1000 µl) composed of acetonitrile/isopropanol (4:1, v/v) containing internal standard substances. However, the 0-minute reaction sample (198 µl) was prepared by adding the evaluation compound (2 µl) after adding the reaction stop solution (1000 µl). The samples after stopping the reaction were used as the measurement samples. Calibration curve samples with the same composition were prepared (final concentrations of the evaluation compounds and brexpiprazole: 0.01, 0.1, and 1 µmol/L, with the proviso that for the evaluation compounds only, the 0-minute reaction samples were also used as calibration curve samples for 1 µmol/L).
For the compounds of Examples 24 to 25, 28 to 29, 32 to 36, 40 to 49, 51 to 60, 62 to 64, 66 to 77, 80 to 86, 90, 92 to 111, 113, 115, 117 to 120, 122, 124 to 130, 132 to 147, and 152 to 160 (EX 24 to EX 25, EX 28 to EX 29, EX 32 to EX 36, EX 40 to EX 49, EX 51 to EX 60, EX 62 to EX 64, EX 66 to EX 77, EX 80 to EX 86, EX 90, EX 92 to EX 111, EX 113, EX 115, EX 117 to EX 120, EX 122, EX 124 to EX 130, EX 132 to EX 147, and EX 152 to EX 160), the reaction solution without the evaluation compound (148.5 µl) was pre-incubated at 37°C for 3 minutes, and then each of the evaluation compound solutions (1.5 µl) was added and stirred; thereafter, the reaction was started at 37°C. At 0 minutes or 60 minutes after the start of the reaction, the reaction was stopped by adding and stirring a reaction stop solution (600 µl) composed of acetonitrile/isopropanol (4:1, v/v) containing internal standard substances. However, the 0-minute reaction sample (148.5 µl) was prepared by adding the evaluation compound (1.5 µl) after adding the reaction stop solution (600 µl). The samples after stopping the reaction were used as the measurement samples. […]

## COCCOCOCCCCOP(=O)([O-])OC[N+]1(CCCCOc2ccc3ccc(=O)[nH]c3c2)CCN(c2cccc3sccc23)CC1 [EX 53]
  Concentration of brexpiprazole formed: 0 nM
  Concentration of evaluation compound decreased: 60 nM

## COCC1CCC(COP(=O)([O-])OC[N+]2(CCCCOc3ccc4ccc(=O)[nH]c4c3)CCN(c3cccc4sccc34)CC2)CC1 (centres unmarked) [EX 54]
  Concentration of brexpiprazole formed: 0 nM
  Concentration of evaluation compound decreased: 140 nM

## CC1(C)OCC(COP(=O)([O-])OC[N+]2(CCCCOc3ccc4ccc(=O)[nH]c4c3)CCN(c3cccc4sccc34)CC2)CO1 [EX 55]
  Concentration of brexpiprazole formed: 0 nM
  Concentration of evaluation compound decreased: 70 nM

## COCC(COC)OP(=O)([O-])OC[N+]1(CCCCOc2ccc3ccc(=O)[nH]c3c2)CCN(c2cccc3sccc23)CC1 [EX 56]
  Concentration of brexpiprazole formed: 0 nM
  Concentration of evaluation compound decreased: 40 nM

## O=C(OCCCCCCOP(=O)([O-])OC[N+]1(CCCCOc2ccc3ccc(=O)[nH]c3c2)CCN(c2cccc3sccc23)CC1)c1ccccc1 [EX 57]
  Concentration of brexpiprazole formed: 0 nM
  Concentration of evaluation compound decreased: 90 nM

## COc1ccc(C(=O)OCCCCCCOP(=O)([O-])OC[N+]2(CCCCOc3ccc4ccc(=O)[nH]c4c3)CCN(c3cccc4sccc34)CC2)cc1 [EX 58]
  Concentration of brexpiprazole formed: 0 nM
  Concentration of evaluation compound decreased: 40 nM

## Cc1cccc(C(=O)OCCCCCCOP(=O)([O-])OC[N+]2(CCCCOc3ccc4ccc(=O)[nH]c4c3)CCN(c3cccc4sccc34)CC2)n1 [EX 59]
  Concentration of brexpiprazole formed: 0 nM
  Concentration of evaluation compound decreased: 50 nM

## O=c1ccc2ccc(OCCCC[N+]3(COP(=O)([O-])OCCCCBr)CCN(c4cccc5sccc45)CC3)cc2[nH]1 [EX 62]
  Concentration of brexpiprazole formed: 0 nM
  Concentration of evaluation compound decreased: 180 nM

## O=c1ccc2ccc(OCCCC[N+]3(COP(=O)([O-])OCC#CCCl)CCN(c4cccc5sccc45)CC3)cc2[nH]1 [EX 63]
  Concentration of brexpiprazole formed: 0 nM
  Concentration of evaluation compound decreased: 20 nM

## O=c1ccc2ccc(OCCCC[N+]3(COP(=O)([O-])OCCCCCCCBr)CCN(c4cccc5sccc45)CC3)cc2[nH]1 [EX 64]
  Concentration of brexpiprazole formed: 0 nM
  Concentration of evaluation compound decreased: 30 nM

## CSCCCOP(=O)([O-])OC[N+]1(CCCCOc2ccc3ccc(=O)[nH]c3c2)CCN(c2cccc3sccc23)CC1 [EX 66]
  Concentration of brexpiprazole formed: 0 nM
  Concentration of evaluation compound decreased: 170 nM

## CC1(C)OCC(C(=O)OCOP(=O)([O-])OC[N+]2(CCCCOc3ccc4ccc(=O)[nH]c4c3)CCN(c3cccc4sccc34)CC2)CO1 [EX 67]
  Concentration of brexpiprazole formed: 0 nM
  Concentration of evaluation compound decreased: 90 nM

## CC(C)(C)OC(=O)CCCC(=O)OCOP(=O)([O-])OC[N+]1(CCCCOc2ccc3ccc(=O)[nH]c3c2)CCN(c2cccc3sccc23)CC1 [EX 69]
  Concentration of brexpiprazole formed: 0 nM
  Concentration of evaluation compound decreased: -10 nM

## O=C(O)CCCC(=O)OCOP(=O)([O-])OC[N+]1(CCCCOc2ccc3ccc(=O)[nH]c3c2)CCN(c2cccc3sccc23)CC1 [EX 70]
  Concentration of brexpiprazole formed: 0 nM
  Concentration of evaluation compound decreased: 0 nM

## CC(C)(CC(=O)O)CC(=O)OCOP(=O)([O-])OC[N+]1(CCCCOc2ccc3ccc(=O)[nH]c3c2)CCN(c2cccc3sccc23)CC1 [EX 71]
  Concentration of brexpiprazole formed: 0 nM
  Concentration of evaluation compound decreased: 100 nM

## COc1ccc(COC(=O)CC(C)(C)CC(=O)OCOP(=O)([O-])OC[N+]2(CCCCOc3ccc4ccc(=O)[nH]c4c3)CCN(c3cccc4sccc34)CC2)cc1 [EX 72]
  Concentration of brexpiprazole formed: 0 nM
  Concentration of evaluation compound decreased: 150 nM

## CC(C)NC(=O)CCCC(=O)OCOP(=O)([O-])OC[N+]1(CCCCOc2ccc3ccc(=O)[nH]c3c2)CCN(c2cccc3sccc23)CC1 [EX 73]
  Concentration of brexpiprazole formed: 0 nM
  Concentration of evaluation compound decreased: 130 nM

## CC1(C)OCC(NC(=O)CCCC(=O)OCOP(=O)([O-])OC[N+]2(CCCCOc3ccc4ccc(=O)[nH]c4c3)CCN(c3cccc4sccc34)CC2)CO1 [EX 74]
  Concentration of brexpiprazole formed: 0 nM
  Concentration of evaluation compound decreased: 50 nM

## CC1(C)OCC(COC(=O)CCCCC(=O)OCOP(=O)([O-])OC[N+]2(CCCCOc3ccc4ccc(=O)[nH]c4c3)CCN(c3cccc4sccc34)CC2)CO1 [EX 75]
  Concentration of brexpiprazole formed: 0 nM
  Concentration of evaluation compound decreased: 70 nM

## CC(C)NC(=O)CCCCCCCCC(=O)OCOP(=O)([O-])OC[N+]1(CCCCOc2ccc3ccc(=O)[nH]c3c2)CCN(c2cccc3sccc23)CC1 [EX 76]
  Concentration of brexpiprazole formed: 0 nM
  Concentration of evaluation compound decreased: 0 nM

## COCCOC(=O)CCCCCCCCCCC(=O)OCOP(=O)([O-])OC[N+]1(CCCCOc2ccc3ccc(=O)[nH]c3c2)CCN(c2cccc3sccc23)CC1 [EX 77]
  Concentration of brexpiprazole formed: 0 nM
  Concentration of evaluation compound decreased: 110 nM

## CC(=O)Oc1ccccc1C(=O)OCOP(=O)([O-])OC[N+]1(CCCCOc2ccc3ccc(=O)[nH]c3c2)CCN(c2cccc3sccc23)CC1 [EX 80]
  Concentration of brexpiprazole formed: 0 nM
  Concentration of evaluation compound decreased: 170 nM

## Cc1ncccc1C(=O)OCOP(=O)([O-])OC[N+]1(CCCCOc2ccc3ccc(=O)[nH]c3c2)CCN(c2cccc3sccc23)CC1 [EX 81]
  Concentration of brexpiprazole formed: 0 nM
  Concentration of evaluation compound decreased: -30 nM

## COC(=O)[C@H](COP(=O)([O-])OC[N+]1(CCCCOc2ccc3ccc(=O)[nH]c3c2)CCN(c2cccc3sccc23)CC1)NC(=O)OC(C)(C)C [EX 83]
  Concentration of brexpiprazole formed: 0 nM
  Concentration of evaluation compound decreased: 70 nM

## O=c1ccc2ccc(OCCCC[N+]3(COP(=O)([O-])OCCCOc4ccccc4)CCN(c4cccc5sccc45)CC3)cc2[nH]1 [EX 84]
  Concentration of brexpiprazole formed: 0 nM
  Concentration of evaluation compound decreased: 10 nM

## O=C(OCCCCCCOP(=O)([O-])OC[N+]1(CCCCOc2ccc3ccc(=O)[nH]c3c2)CCN(c2cccc3sccc23)CC1)c1ccc([N+](=O)[O-])cc1 [EX 85]
  Concentration of brexpiprazole formed: 0 nM
  Concentration of evaluation compound decreased: 40 nM

## O=c1ccc2ccc(OCCCC[N+]3(COP(=O)([O-])OC[C@H]4CC[C@H](CO)CC4)CCN(c4cccc5sccc45)CC3)cc2[nH]1 [EX 86]
  Concentration of brexpiprazole formed: 0 nM
  Concentration of evaluation compound decreased: 50 nM

## COP(=O)([O-])OC[N+]1(CCCCOc2ccc3ccc(=O)[nH]c3c2)CCN(c2cccc3sccc23)CC1 [EX 87]
  Concentration of brexpiprazole formed: 0 nM
  Concentration of evaluation compound decreased: 0 nM

## CCCOP(=O)([O-])OC[N+]1(CCCCOc2ccc3ccc(=O)[nH]c3c2)CCN(c2cccc3sccc23)CC1 [EX 88]
  Concentration of brexpiprazole formed: 0 nM
  Concentration of evaluation compound decreased: -10 nM

## CCCCOP(=O)([O-])OC[N+]1(CCCCOc2ccc3ccc(=O)[nH]c3c2)CCN(c2cccc3sccc23)CC1 [EX 89]
  Concentration of brexpiprazole formed: 0 nM
  Concentration of evaluation compound decreased: -70 nM

## CC(C)COP(=O)([O-])OC[N+]1(CCCCOc2ccc3ccc(=O)[nH]c3c2)CCN(c2cccc3sccc23)CC1 [EX 90]
  Concentration of brexpiprazole formed: 0 nM
  Concentration of evaluation compound decreased: -30 nM
